Source: ChEMBL document CHEMBL1142290, “Synthesis of novel oxazolidinone antimicrobial agents” (2008)
≈ marks a conversion by molar mass, not a printed value. Calls of active or inactive are those of the source. The rule behind the calls is not given here.

Key:
[1] = tested on: Escherichia coli; assay: Antimicrobial activity against Escherichia coli ATCC 25922 upto 100 ug/ml after 24 hrs; type: functional, organism-based
[2] = tested on: Staphylococcus aureus; assay: Antimicrobial activity against Staphylococcus aureus ATCC 29213 after 24 hrs; type: functional; conditions: ATCC 29213, 24 h

Row | Compound | Activity [1] | MIC [2]
1 | O=C1O[C@@H](Cn2ccnn2)CN1c1ccc2c(c1)Oc1ccccc1O2 | inactive | > 50 mg/L
2 | O=C(O)c1cn(C[C@H]2CN(c3ccc4c(c3)Oc3ccccc3O4)C(=O)O2)nn1 | inactive | > 50 mg/L
3 | CC(=O)NC[C@H]1CN(c2ccc3c(c2)Oc2ccccc2O3)C(=O)O1 | – | 2 mg/L (≈ 5.88 µM)
4 | CCCCc1cn(C[C@H]2CN(c3ccc4c(c3)Oc3ccccc3O4)C(=O)O2)nn1 | inactive | > 50 mg/L
